Measurements: article PMC8327781 (Journal of medicinal chemistry, 2021)
Where two headings read alike, the source gives them in different places.

Biological target: JAK2 KD (Homo sapiens, UniProt O60674)
Assay: Recombinant JAK2 KD protein levels in transfected Expi293F cells
Type: cell-based

Sequence of JAK2 KD (O60674 840-1132): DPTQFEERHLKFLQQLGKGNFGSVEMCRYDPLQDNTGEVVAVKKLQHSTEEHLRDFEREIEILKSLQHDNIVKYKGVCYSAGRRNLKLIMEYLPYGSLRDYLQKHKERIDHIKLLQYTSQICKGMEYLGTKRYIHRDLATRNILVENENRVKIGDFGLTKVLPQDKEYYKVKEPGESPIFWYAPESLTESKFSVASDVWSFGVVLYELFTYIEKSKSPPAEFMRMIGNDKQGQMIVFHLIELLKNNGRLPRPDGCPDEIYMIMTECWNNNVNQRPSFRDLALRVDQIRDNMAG

## CCCC(CCC)C(=O)O [valproic acid]
HDAC inhibitor added alongside 1 μM ruxolitinib, 2 mM and 4 mM
  JAK2 KD expression increase over that of ruxolitinib alone: four-fold

## CCCC(=O)O [butyric acid]
  JAK2 KD expression increase over that of ruxolitinib alone: four-fold
